Source: PMC10367051, “Comprehensive Mechanistic View of the Hydrolysis of Oxadiazole-Based Inhibitors by Histone Deacetylase 6 (HDAC6)” (ACS Chemical Biology, 2023)
Residue numbers refer to the chain shown, from its start.

Columns and labels:
HDAC6(Y745F) mutant = biological target: T1, HDAC6(Y745F) mutant (Danio rerio, UniProt F8W4B7, Y745F); assay: Inhibitor hydrolysis in vitro by HDAC6(Y745F) mutant (LC-MS/MS); format: biochemical; conditions: 30 °C; for hydrolysis by the HDAC6(Y745F) mutant: 20 μM compound, 2 μM enzyme
T1 construct: Danio rerio HDAC6 (amino acids 440–798; zHDAC6); His (N, cleaved yes); MBP (N, cleaved yes); made in house; host or cells: RIPL Escherichia coli
T1 sequence (F8W4B7 440-798 Y745F): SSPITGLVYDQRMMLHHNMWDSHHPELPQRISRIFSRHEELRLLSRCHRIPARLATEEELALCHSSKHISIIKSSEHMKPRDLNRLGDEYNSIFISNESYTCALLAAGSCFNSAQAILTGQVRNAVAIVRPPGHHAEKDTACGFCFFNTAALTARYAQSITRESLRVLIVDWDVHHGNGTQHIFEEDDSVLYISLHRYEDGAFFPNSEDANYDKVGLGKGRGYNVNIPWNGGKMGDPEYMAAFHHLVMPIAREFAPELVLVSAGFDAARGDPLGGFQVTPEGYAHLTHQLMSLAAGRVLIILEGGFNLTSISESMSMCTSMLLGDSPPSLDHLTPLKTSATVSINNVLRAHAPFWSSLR
Protocol: (§1) The zHDAC6 mutants (Y745F and H574A) were constructed using the Quick-change site-directed mutagenesis protocol with the pEC566-zHDAC6 expression plasmid as a template. Both mutants were expressed and purified as described above for wild-type zHDAC6 (Figure S2).
(§2) Mass spectrometry quantification of inhibitors/reaction products was carried out with a Shimadzu LCMS-8040 instrument (Shimadzu, HPLC Prominence system). Analytes were separated on a Kinetex XB-C18 2.6 μm, 100 Å column (50 × 2.1 mm; Phenomenex) in a linear 15–60% CH3CN/H2O gradient containing 0.1% formic acid at a flow rate of 0.8 mL min^–1 over 4 min. Multiple reaction monitoring (MRM) parameters were optimized for each analyte, and corresponding major CID fragments were used for quantification. Analytes were quantified using corresponding calibration curves generated from pure compounds dissolved in water.
(§3) […] […] Four microliter aliquots of reaction mixtures were injected into the system directly from the 96-well plate, and inhibitors/reaction products were quantitated as described above.

HDAC6(H574A) mutant = biological target: T2, HDAC6(H574A) mutant (Danio rerio, UniProt F8W4B7, H574A); assay: Inhibitor hydrolysis in vitro by HDAC6(H574A) mutant (LC-MS/MS); format: biochemical; conditions: 20 μM compound, 2 μM enzyme, 30 °C
T2 construct: Danio rerio HDAC6 (amino acids 440–798; zHDAC6); His (N, cleaved yes); MBP (N, cleaved yes); made in house; host or cells: RIPL Escherichia coli
T2 sequence (F8W4B7 440-798 H574A): T1 sequence (F8W4B7 440-798 Y745F) with H135A, F306Y
Protocol: as §1, §2, §3

[1] = Control reaction without the enzyme (assay buffer, LC-MS/MS); format: physicochemical; conditions: 20 μM 8, assay buffer pH 7.4, 30 °C
Protocol: as §2
Twenty micromolar solutions of compounds were mixed with 1 μM zHDAC6 in a 96-well plate in an assay buffer comprising 50 mM HEPES, 140 mM NaCl, and 10 mM KCl at pH 7.4. […] Four microliter aliquots of reaction mixtures were injected into the system directly from the 96-well plate, and inhibitors/reaction products were quantitated as described above.

[2] = tested on: HEK293/HDAC6 cell lysates (stably transfected with human HDAC6); assay: Inhibitor hydrolysis in HEK293/HDAC6 cell lysates (LC-MS/MS); format: in vitro ADME; conditions: 20 μM 8, 2.5 mg mL^–1 protein, 37 °C
Protocol: HEK293 cells stably transduced with full-length human HDAC6 were generated following the protocol published previously.[40] Briefly, Lenti-X 293T and HEK293T cells were grown in T75 flasks in the DMEM/F-12/10% fetal bovine serum (FBS) medium under an atmosphere containing 5% CO2 at 37 °C. The Lenti-X 293T cells were transfected with the combination of pMD.2G, psPAX2, and pHR_CMV_MM320_hsHD6 (Figure S2) using Lipofectamine2000 (Invitrogen) according to the manufacturer’s protocol. Three days post-transfection, the virion-rich medium was collected by centrifugation, supplemented with polybrene (final concentration 10 μg mL^–1), and added to adherent HEK293T cells grown to 100% confluency. Three days post-infection, transduced HEK293T cells were expanded in FreeStyle 293 medium (GIBCO) supplemented with 1% FBS in an Erlenmeyer flask (suspension culture, 110 RPM). Transduction efficacy was determined by flow cytometry analysis to be >95%.
Mass spectrometry quantification of inhibitors/reaction products was carried out with a Shimadzu LCMS-8040 instrument (Shimadzu, HPLC Prominence system). […] Multiple reaction monitoring (MRM) parameters were optimized for each analyte, and corresponding major CID fragments were used for quantification. Analytes were quantified using corresponding calibration curves generated from pure compounds dissolved in water. […]

SMILES: CS(=O)(=O)N(Cc1ccc(-c2nnc(C(F)F)o2)cn1)c1cccc(Cl)c1 [compound 8]
- rate of hydrolysis by the HDAC6(Y745F) mutant relative to wild type (HDAC6(Y745F) mutant; 20 μM 8, 2 μM enzyme): comparable to the wild-type HDAC6
- hydrolysis by the HDAC6(Y745F) mutant (HDAC6(Y745F) mutant): hydrolyzed
- hydrolysis by the HDAC6(H574A) mutant (HDAC6(H574A) mutant): no hydrolysis was observed
- hydrolysis in the control reaction without the enzyme [1]: no hydrolysis was observed
- efficiency of hydrolysis in HEK293/HDAC6 lysate versus HEK293 lysate [2]: more efficient
- hydrolysis in HEK293/HDAC6 cell lysate [2]: hydrolyzed 8 to 6 and 4

SMILES: CS(=O)(=O)N(Cc1ccc(C(=O)NNC(=O)C(F)F)cn1)c1cccc(Cl)c1 [compound 6]
- hydrolysis by the HDAC6(Y745F) mutant (HDAC6(Y745F) mutant): hydrolyzed
